Experimental data from paper PMC10907753 (Communications Biology, 2024).
“And” between values parts separate entries of the source, which are not always exact repeats. Identical values can stand only once. Like-named read-outs stand apart in the source and are kept apart here.

Legend:
Xcc NAMPT [1] = molecular target: T1, Xcc NAMPT (Xanthomonas campestris pv. campestris, UniProt A0A0H2X5R2); test: Determination of IC50 value for FK866; type: biochemical
Xcc NAMPT [2] = molecular target: T1, Xcc NAMPT; test: biochemical
[3] = tested on: Xcc ΔNamptΔNads (XC_0719 and XC_1067 double deletion mutant); type: cell-based, Xanthomonas campestris pv. campestris; conditions: 0.1 mM supplement, 28 °C
Procedure: The bacterium Xcc was grown in NYG medium at 28 °C and shaked at 200 rpm for 16–18 h. Once the cells had grown to a point where OD600 reached 1.0, they were harvested via centrifugation and washed twice with MMX medium. Following this, a volume of 0.1 ml of the cell suspension was added to 5 ml of fresh MMX medium. […] The culture was grown at 28 °C and the OD600 values were measured every 12 h. The experiments were repeated at least three times to ensure consistency.

[4] = molecular target: Xcc NAMPT H175F-I224F-V291F-I332F quadruple mutant (Xanthomonas campestris pv. campestris, UniProt A0A0H2X5R2, H175F/I224F/I332F/V291F); type: biochemical; conditions: for kcat / Km: 3.5 nM quadruple mutant
Procedure: (§1) To ensure the reliability of the results, all assays were performed multiple times. NAMPT enzyme activity was assessed using a chemical approach that converted NMN into a fluorescent derivative, in accordance with established protocols[15],[30].
(§2) The enzymatic reactions were carried out for 15 min at 37 °C, and the quantification of NMN was achieved using the fluorescence method. Briefly, the sample containing NMN (25 μl) was mixed with 10 μl of 20% acetophenone (200 μl acetophenone dissolved in 800 μl DMSO) and 10 μl of 2 M KOH. The mixture was then incubated on ice for 10 minutes before adding 45 μl of 100% formic acid. The resulting mixture was incubated at 37 °C for 15 min. Samples (40 μl) were then transferred to a 384-well plate, and fluorescence intensity was measured using the Victor Nivo Multimode plate reader (Perkin Elmer), with excitation and emission wavelengths set at 355/40 and 435/20 nm, respectively.
The kinetic data was analyzed using Graphpad Prism 8. To determine the hill coefficients, substrate-velocity curves were analyzed by nonlinear regression with an allosteric sigmoidal model using the equation v = Vmax S^h/(Km^h + S^h). […]
mutant. c-d Michaelis–Menten plots for the tunnel-blocked quadruple mutant of Xcc […]
To determine the kinetic parameters of quadruple mutant, a concentration of 3.5 nM mutant was used. […]

Xcc NAMPT [5] = molecular target: T1, Xcc NAMPT; test: NAMPT enzyme activity, fluorometric NMN assay (kinetic constants); type: biochemical
Procedure: as §1, §2
Correspondingly, the additions of 20% acetophenone, 2 M KOH, and 100% formic acid were adjusted proportionally. The resulting final samples (120 μl) were transferred to 96-well plates, and the fluorescence values were measured following the same procedure as described earlier.
(§3) The kinetic data was analyzed using Graphpad Prism 8. To determine the hill coefficients, substrate-velocity curves were analyzed by nonlinear regression with an allosteric sigmoidal model using the equation v = Vmax S^h/(Km^h + S^h).

human NAMPT [6] = molecular target: T2, human NAMPT (Homo sapiens, UniProt P43490); test: as above; type: biochemical; conditions: 30 nM human NAMPT, PRPP 3 to 50 μM
Procedure: To determine the kinetic parameters of human NAMPT, a concentration of 30 nM His-tagged human NAMPT was used. […] The remaining conditions were kept the same as those employed in the Xcc NAMPT reaction system.
as §2, §3

Xcc NAMPT [7] = molecular target: T1, Xcc NAMPT; conditions: read-out: Kd2; ITC, 25 mM NAM into 30 μM NAMPT, sequential binding sites model, second site
human NAMPT [8] = molecular target: T2, human NAMPT; conditions: human NAMPT for NAM; cited from earlier work
[9] = molecular target: R373A+R180A mutant pair of Xcc NAMPT (Xanthomonas campestris pv. campestris, UniProt A0A0H2X5R2, R180A/R373A); test: NAMPT enzyme activity, fluorometric NMN assay (kinetic constants); type: biochemical
Procedure: as §2
. Correspondingly, the additions of 20% acetophenone, 2 M KOH, and 100% formic acid were adjusted proportionally. The resulting final samples (120 μl) were transferred to 96-well plates, and the fluorescence values were measured following the same procedure as described earlier.
as §3
Fig. S9 Substrate-velocity curve for the R373A+R180A mutant pair of Xcc
of 0.3 nM mutant pair was used.
μM. The error bars depicted on the plot indicate the standard deviation of
measurements taken from three replicates.

[10] = molecular target: Xcc NAMPT with ATP pretreatment (Xanthomonas campestris pv. campestris, UniProt A0A0H2X5R2); conditions: ITC after ATP treatment, sequential binding
Procedure: Proteins pretreated with ATP were prepared by incubating 1 μM protein and 1 mM ATP at 25 °C for 30 min. […] The ATP was subsequently removed by gel filtration using the Superdex 200 Increase 10/300 GL column. The final concentrations of proteins were measured by Nanodrop.
figure presented is a representative sample from three separate experiments. A
sequential binding sites model was used to fit the binding curves, yielding the
dissociation constant (Kd) and the stoichiometry (N) of the binding reaction.
(1 picture or pasted object on this page, not shown here)

human NAMPT [11] = molecular target: T2, human NAMPT; conditions: NAMPT activators; cited from earlier work
[12] = FK866 0.4 nM, E=0.4 nM, replicates
[13] = substrate of Xcc NAMPT, 37 °C, Michaelis-Menten fit
[14] = 0.3 nM mutant pair, NAM 0.1 to 4 μM

T2 sequence (P43490 whole entry): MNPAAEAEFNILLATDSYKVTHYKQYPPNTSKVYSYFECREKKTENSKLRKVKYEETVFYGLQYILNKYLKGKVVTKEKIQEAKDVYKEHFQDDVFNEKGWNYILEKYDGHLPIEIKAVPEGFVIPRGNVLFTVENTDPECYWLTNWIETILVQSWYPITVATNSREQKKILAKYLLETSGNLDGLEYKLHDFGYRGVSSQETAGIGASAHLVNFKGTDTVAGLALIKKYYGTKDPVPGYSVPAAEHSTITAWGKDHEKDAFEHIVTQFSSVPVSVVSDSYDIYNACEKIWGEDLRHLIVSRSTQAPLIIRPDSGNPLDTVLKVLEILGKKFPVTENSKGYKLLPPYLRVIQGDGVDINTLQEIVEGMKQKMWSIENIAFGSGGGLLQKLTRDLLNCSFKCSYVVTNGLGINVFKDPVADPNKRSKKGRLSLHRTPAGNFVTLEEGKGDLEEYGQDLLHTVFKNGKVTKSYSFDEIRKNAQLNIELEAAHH

## O=C(/C=C/c1cccnc1)NCCCCC1CCN(C(=O)c2ccccc2)CC1 [FK866]
Xcc NAMPT [1]
  IC50: 0.00023 µM
Xcc NAMPT [1]; FK866 0.02 nM, E=0.4 nM, replicates
  Activity %: 99.2204% and 100.986% and 94.6063% and 98.6899%
Xcc NAMPT [1]; FK866 0.04 nM, E=0.4 nM, replicates
  Activity %: 101.785% and 102.935% and 85.505% and 97.238%
Xcc NAMPT [1]; FK866 0.1 nM, E=0.4 nM, replicates
  Activity %: 78.2474% and 70.3189% and 72.1819% and 76.3149%
Xcc NAMPT [1]; FK866 0.2 nM, E=0.4 nM, replicates
  Activity %: 62.8959% and 69.0568% and 55.7537% and 65.4354%
Xcc NAMPT [1]; [12]
  Activity %: 17.7119% and 13.8804% and 14.6162%
  activity at 0.0004 µM: 14.2%
Xcc NAMPT [1]; FK866 1 nM, E=0.4 nM, replicates
  Activity %: 4.02% and 4.725% and 5.923% and 4.615%
Xcc NAMPT [1]; FK866 2 nM, E=0.4 nM, replicates
  Activity %: 1.856% and 4.769% and 2.139% and 3.338%
Xcc NAMPT [2]
  Kd: 0.0822 µM

## NC(=O)c1ccc[n+]([C@@H]2O[C@H](COP(=O)([O-])OP(=O)(O)OC[C@H]3O[C@@H](n4cnc5c(N)ncnc54)[C@H](O)[C@@H]3O)[C@@H](O)[C@H]2O)c1 [NAD+, nicotinamide adenine dinucleotide]
[3]
  growth of ΔNamptΔNads in MMX with supplement: able to grow

## O=C(O)c1cccnc1 [NA, nicotinic acid]
[3]
  growth of ΔNamptΔNads in MMX with supplement: did not grow

## O=P(O)(O)OC[C@H]1O[C@H](OP(=O)(O)OP(=O)(O)O)[C@H](O)[C@@H]1O [PRPP]
[4]
  kcat: 0.44 ± 0.01 s⁻¹
[4]; read-out: Km
  Km: 9.56 ± 1.14 µM
[4]; quadruple mutant vs wild-type
  fold decrease in Km: 2.55 fold
  fold decrease in catalytic efficiency: about 5.80 fold
  fold decrease in kcat: 15.89 fold
Xcc NAMPT [5]; [13]
  Km: 24.4 ± 6.26 µM
  kcat: 6.99 ± 0.56 s⁻¹
Human NAMPT [6]
  kcat: 0.045 ± 0.001 s⁻¹
Human NAMPT [6]; 2.5 mM ATP, 10 μM NAM
  Km: 5.41 ± 0.58 µM

## Nc1ncnc2c1ncn2[C@@H]1O[C@H](COP(=O)(O)OP(=O)(O)OP(=O)(O)O)[C@@H](O)[C@H]1O [ATP]
Xcc NAMPT [5]
  Km: 560 ± 60 µM
Xcc NAMPT [5]; [13]
  kcat: 4.40 ± 0.16 s⁻¹

## NC(=O)c1cccnc1 [NAM, nicotinamide]
Xcc NAMPT [7]
  Kd: 21000 µM
[4]
  Km: 7.33 ± 0.66 µM
  kcat: 0.55 ± 0.02 s⁻¹
[4]; NAM, quadruple mutant
  hill coefficient: 1.00
Human NAMPT [8]
  Km: 0.005 ± 0.002 µM
Xcc NAMPT [5]; NAM substrate-velocity curve, allosteric sigmoidal model
  hill coefficient: ~ 1.98
[9]; [14]
  Km: 0.08 ± 0.01 µM
  kcat: 0.188 ± 0.005 s⁻¹
[9]; mutant pair, NAM
  hill coefficient (H): 1.64 ± 0.32 and 1.64
Xcc NAMPT [2]
  Kd: 1410 µM
[10]; read-out: Kd (first binding site)
  Kd: 330 µM
[10]; read-out: Kd (second binding site)
  Kd: 2990 µM
[3]
  growth of ΔNamptΔNads in MMX with supplement: did not grow

## O=C(NCc1ccncc1)Nc1ccc(S(=O)(=O)N2CC3CCC(C2)O3)cc1 [SBI-797812]
Human NAMPT [11]
  effect on the enzymatic activity of human NAMPT: almost double

## NC(=O)c1ccc[n+]([C@@H]2O[C@H](CO)[C@@H](O)[C@H]2O)c1 [NmR, nicotinamide riboside]
[3]
  growth of ΔNamptΔNads in MMX with supplement: did not grow
